Reference: ChEMBL document CHEMBL1137791, “Cell division cycle 7 kinase inhibitors: 1H-pyrrolo[2,3-b]pyridines, synthesis and structure-activity relationships” (J Med Chem, 2009)

Key:
[1] = target: Cell division cycle 7-related protein kinase (Homo sapiens, UniProt O00311); assay: Inhibition of Cdc7-mediated phosphorylation of Mcm2
A2780 = assay: Antiproliferative activity against human A2780 cells after 72 hrs by firefly luciferase assay; type: functional, cell-based; conditions: A2780, 72 h
CDK9/cyclin T1 = CDK9/cyclin T1 (Homo sapiens, UniProt P50750); assay: Inhibition of Cdk9/cyclinT; type: protein-complex assay
[2] = target: cAMP-dependent protein kinase catalytic subunit alpha (Homo sapiens, UniProt P17612); assay: Inhibition of PKAalpha
[3] = target: Cyclin-dependent kinase 2 (Homo sapiens, UniProt P24941); assay: Inhibition of Cdk2/cyclinA

Cell division cycle 7-related protein kinase, sequence (O00311 whole entry): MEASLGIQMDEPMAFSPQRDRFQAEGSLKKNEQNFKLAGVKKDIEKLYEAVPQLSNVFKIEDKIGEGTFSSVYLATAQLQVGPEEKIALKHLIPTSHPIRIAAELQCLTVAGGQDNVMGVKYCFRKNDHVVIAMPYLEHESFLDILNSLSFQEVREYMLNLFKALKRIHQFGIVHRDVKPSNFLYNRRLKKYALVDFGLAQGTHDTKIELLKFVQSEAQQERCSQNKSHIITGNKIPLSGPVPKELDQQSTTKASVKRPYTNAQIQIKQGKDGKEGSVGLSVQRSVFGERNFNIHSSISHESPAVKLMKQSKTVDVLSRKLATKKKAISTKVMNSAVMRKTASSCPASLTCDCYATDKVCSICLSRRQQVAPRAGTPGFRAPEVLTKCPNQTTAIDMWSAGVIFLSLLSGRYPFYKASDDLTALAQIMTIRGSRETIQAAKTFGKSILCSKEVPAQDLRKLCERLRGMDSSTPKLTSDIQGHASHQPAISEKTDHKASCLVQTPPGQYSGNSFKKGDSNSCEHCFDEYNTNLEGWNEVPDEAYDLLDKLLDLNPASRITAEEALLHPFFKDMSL
CDK9/cyclin T1, sequence (O60563 whole entry): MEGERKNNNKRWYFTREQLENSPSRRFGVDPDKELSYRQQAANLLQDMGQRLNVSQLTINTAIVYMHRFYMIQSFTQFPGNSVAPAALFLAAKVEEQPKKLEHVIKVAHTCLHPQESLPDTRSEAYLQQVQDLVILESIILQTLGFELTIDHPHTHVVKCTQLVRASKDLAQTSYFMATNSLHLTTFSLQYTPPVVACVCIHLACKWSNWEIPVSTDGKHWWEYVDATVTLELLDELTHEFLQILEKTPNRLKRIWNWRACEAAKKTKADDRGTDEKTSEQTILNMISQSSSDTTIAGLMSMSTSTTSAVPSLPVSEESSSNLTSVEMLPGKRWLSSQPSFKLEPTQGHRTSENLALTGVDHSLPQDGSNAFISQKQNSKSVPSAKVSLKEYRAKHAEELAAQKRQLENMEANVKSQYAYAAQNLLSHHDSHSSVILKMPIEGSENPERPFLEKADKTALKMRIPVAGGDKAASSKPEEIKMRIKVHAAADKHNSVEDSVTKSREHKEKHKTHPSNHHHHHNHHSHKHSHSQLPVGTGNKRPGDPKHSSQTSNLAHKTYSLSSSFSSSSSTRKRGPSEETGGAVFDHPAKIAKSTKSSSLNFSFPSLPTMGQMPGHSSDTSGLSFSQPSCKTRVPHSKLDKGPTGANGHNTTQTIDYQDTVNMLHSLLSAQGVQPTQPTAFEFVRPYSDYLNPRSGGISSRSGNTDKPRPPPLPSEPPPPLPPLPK
CDK9/cyclin T1, sequence (P50750 whole entry): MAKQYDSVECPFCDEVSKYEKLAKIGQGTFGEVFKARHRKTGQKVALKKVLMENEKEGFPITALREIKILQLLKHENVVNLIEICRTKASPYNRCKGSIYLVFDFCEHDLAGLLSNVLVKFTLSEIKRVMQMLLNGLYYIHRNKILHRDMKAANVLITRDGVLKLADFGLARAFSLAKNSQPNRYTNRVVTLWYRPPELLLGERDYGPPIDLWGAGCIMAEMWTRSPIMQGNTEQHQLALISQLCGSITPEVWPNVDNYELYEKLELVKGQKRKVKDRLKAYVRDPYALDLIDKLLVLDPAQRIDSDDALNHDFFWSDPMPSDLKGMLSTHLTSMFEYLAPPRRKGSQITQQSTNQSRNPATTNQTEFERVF

Row | Structure (SMILES) | IC50 [1] [nM] | other results
1 | Cc1cccc(C2=N/C(=C\c3c[nH]c4ncccc34)C(=O)N2)c1 | 30 | 
2 | Cc1ccc(CNC2=N/C(=C\c3c[nH]c4ncccc34)C(=O)N2)cc1 | 162 | 
3 | O=C1N=C(NCc2ccccc2)S/C1=C\c1c[nH]c2ncccc12 | 9 | IC50 (A2780): 320 nM; IC50 [2]: < 50 nM; IC50 [3]: < 50 nM; IC50 (CDK9/cyclin T1): 15 nM
4 | O=C1NC(NCc2ccc(Br)cc2)=N/C1=C\c1c[nH]c2ncccc12 | 127 | 
5 | O=C1NC(c2ccccc2)=N/C1=C\c1c[nH]c2ccccc12 | > 10000 | 
6 | CC(C)NC1=NC(=O)/C(=C/c2c[nH]c3ncccc23)S1 | 10 | IC50 (A2780): 1000 nM
7 | C/C(=C1/N=C(NCc2ccccc2)NC1=O)c1c[nH]c2ncccc12 | > 10000 | 
8 | Cc1cccc(CNC2=N/C(=C\c3c[nH]c4ncccc34)C(=O)N2)c1 | 50 | 
9 | O=C1NC(NCCc2ccccc2)=N/C1=C\c1c[nH]c2ncccc12 | 18 | 
10 | O=C1N=C(NCc2ccco2)S/C1=C\c1c[nH]c2ncccc12 | 4 | IC50 (A2780): 1200 nM
11 | O=C1NC(c2cccnc2)=N/C1=C\c1c[nH]c2ncccc12 | 60 | 
12 | O=C1NC(NCc2ccccc2)=N/C1=C/c1c[nH]c2ncc([N+](=O)[O-])cc12 | > 10000 | 
13 | O=C1NC(c2ccccc2)=N/C1=C\c1c[nH]c2ncccc12 | 50 | 
14 | Cc1ccc(C2=N/C(=C\c3c[nH]c4ncccc34)C(=O)N2)cc1 | 47 | 
15 | O=C1NC(SCc2ccccc2)=N/C1=C\c1c[nH]c2ncccc12 |  | IC50 (CDK9/cyclin T1): 6100 nM
16 | CC(=O)Nc1cnc2[nH]cc(/C=C3\N=C(NCc4ccccc4)NC3=O)c2c1 | 116 | 
17 | O=C1NC(NCc2cccc(Br)c2)=N/C1=C\c1c[nH]c2ncccc12 | 55 | 
18 | C[C@H](NC1=N/C(=C\c2c[nH]c3ncccc23)C(=O)N1)c1ccccc1 | 21 | IC50 (A2780): 380 nM
19 | Nc1cnc2[nH]cc(/C=C3\N=C(NCc4ccccc4)NC3=O)c2c1 | 238 | 
20 | C[C@H](NC1=NC(=O)/C(=C/c2c[nH]c3ncccc23)S1)c1ccccc1 | 26 | IC50 (A2780): 42 nM
21 | O=C1NC(NCc2ccccc2)=N/C1=C\c1c[nH]c2ncc([N+](=O)[O-])cc12 | 130 | 

The next lines start with results.

Row | IC50 [1] [nM] | Structure (SMILES) | other results
22 | 105 | CC1CCN(C2=N/C(=C\c3c[nH]c4ncccc34)C(=O)N2)CC1 | 
23 | 45 | CCNC1=N/C(=C\c2c[nH]c3ncccc23)C(=O)N1 | 
24 | 13 | CC(C)NC1=N/C(=C\c2c[nH]c3ncccc23)C(=O)N1 | IC50 (A2780): 8800 nM
25 | 15 | O=C1NC(NCc2ccco2)=N/C1=C\c1c[nH]c2ncccc12 | IC50 (A2780): 4000 nM
26 | 20 | O=C1NC(NCc2ccccc2)=N/C1=C\c1c[nH]c2ncccc12 | IC50 (A2780): 1200 nM; IC50 (CDK9/cyclin T1): 95 nM
27 | 25 | O=C1NC(N2CCCCC2)=N/C1=C\c1c[nH]c2ncccc12 | 
28 | 21 | O=C1NC(NC2CCCCC2)=N/C1=C\c1c[nH]c2ncccc12 | 
29 | 37 | O=C1NC(NCCO)=N/C1=C\c1c[nH]c2ncccc12 | 
30 | 35 | CCCCCNC1=N/C(=C\c2c[nH]c3ncccc23)C(=O)N1 | 
31 | 86 | O=C1NC(NCc2ccc(Cl)cc2)=N/C1=C\c1c[nH]c2ncccc12 | 
32 | 24 | CC(C)(C)CCNC1=N/C(=C\c2c[nH]c3ncccc23)C(=O)N1 | 
33 | 47 | O=C1NC(N2CCOCC2)=N/C1=C\c1c[nH]c2ncccc12 | 
34 | 207 | CC(C)(C)C1CCC(NC2=N/C(=C\c3c[nH]c4ncccc34)C(=O)N2)CC1 (stereo not given) | 
35 | 128 | O=C1NC(NCC23CC4CC(CC(C4)C2)C3)=N/C1=C\c1c[nH]c2ncccc12 | 
36 | 33 | O=C1NC(NC2CC2)=N/C1=C\c1c[nH]c2ncccc12 | 
37 | 247 | CCCCCCCNC1=N/C(=C\c2c[nH]c3ncccc23)C(=O)N1 | 
38 | 39 | O=C1NC(NCc2cccc(Cl)c2)=N/C1=C\c1c[nH]c2ncccc12 | 
39 | 64 | O=C1NC(NCC2CCCCC2)=N/C1=C\c1c[nH]c2ncccc12 | 
40 | 21 | O=C1NC(NCC2CCCO2)=N/C1=C\c1c[nH]c2ncccc12 (stereo not given) | 
41 | 66 | CC1CN(C2=N/C(=C\c3c[nH]c4ncccc34)C(=O)N2)CCO1 (stereo not given) | 
42 | 18 | O=C1NC(NCc2cccs2)=N/C1=C\c1c[nH]c2ncccc12 | 
43 | 13 | CC1CCC(NC2=N/C(=C\c3c[nH]c4ncccc34)C(=O)N2)CC1 (stereo not given) | 
